Data taken from patent publication US20250388593A1 (MITSUBISHI TANABE PHARMA CORPORATION, priority 2023, published 2025).

These compounds were tested against CRBN truncate (318-426) (Homo sapiens (Human), UniProt Q96SW2) (assay: Measurement of molecular interactions using surface plasmon resonance (SPR), Biacore T200). Settings: 25° C., immobilized CRBN truncate, upper limit of measurement 200 μM.
Format: binding
In short: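 Compound injections used 60 s association and 120 s dissociation in HEPES pH 7.5 buffer (150 mM NaCl, 1 mM TCEP, 0.005% Tween 20, 2% DMSO). The ligand was CRBN truncate 318-426 bearing a C-terminal Avi-tag, immobilised via streptavidin on an SA sensor chip.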

Sequence of CRBN truncate (318-426) (Q96SW2 318-426): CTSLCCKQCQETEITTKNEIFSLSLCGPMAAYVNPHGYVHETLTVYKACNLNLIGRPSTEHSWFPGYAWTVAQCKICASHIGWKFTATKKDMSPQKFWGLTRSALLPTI

Structure (SMILES) | Kd
CC(C)(C)OC(=O)c1ccc(N2CCC3(CCCC(=O)NC3=O)C2)cc1 (stereo not shown) [Example 128, tert-Butyl 4-(6,8-dioxo-2,7-diazaspiro [4.6]undecan-2-yl) benzoate] | < 50 µM
CC(C)(C)OC(=O)c1ccc(N2CCC3(CC=CC(=O)NC3=O)C2)nc1 (stereo not shown) [Example 131, tert-Butyl 6-(6,8-dioxo-2,7-diazaspiro [4.6]undec-9-en-2-yl) pyridine-3-carboxylate] | ≥ 100 µM
CC1(c2cccc(N)c2)CCCC(=O)NC1=O (stereo not shown) [Example 133, 3-(3-Aminophenyl)-3-methyl-azepane-2,7-dione] | ≥ 100 µM
CC(=O)Nc1cccc(C2(C)CCCC(=O)NC2=O)c1 (stereo not shown) [Example 134, N-[3-(3-Methyl-2,7-dioxoazepan-3-yl)phenyl]acetamide] | 50 to 100 µM
O=C1CCCC(n2nc(I)c3ccccc32)C(=O)N1 (stereo not shown) [Example 135, 3-(3-Iodoindazol-1-yl)azepane-2,7-dione] | < 50 µM
CC(C)(C)OC(=O)/C=C/c1nn(C2CCCC(=O)NC2=O)c2ccccc12 (stereo not shown) [Example 136] | 50 to 100 µM
CC(C)(C)OC(=O)Cn1c(=O)n(C2CCCC(=O)NC2=O)c2ccccc21 (stereo not shown) [Example 138, tert-Butyl 2-[3-(2,7-dioxoazepan-3-yl)-2-oxo-benzimidazol-1-yl]acetate] | 50 to 100 µM
Cn1c(=O)n(C2CCCC(=O)NC2=O)c2ccc(Br)cc21 (stereo not shown) [Example 139, 3-(5-Bromo-3-methyl-2-oxobenzimidazol-1-yl) azepane-2,7-dione] | 50 to 100 µM
Cn1c(=O)n(C2CCCC(=O)NC2=O)c2ccc(/C=C/C(=O)OC(C)(C)C)cc21 (stereo not shown) [Example 140, tert-Butyl (E)-3-[1-(2,7-oxazepan-3-yl)-3-methyl-2-oxo-benzimidazol-5-yl]-2-propenoate] | ≥ 100 µM
Cn1c(=O)n(C2CCCC(=O)NC2=O)c2ccc(CCC(=O)OC(C)(C)C)cc21 (stereo not shown) [Example 141] | 50 to 100 µM
NC(=O)c1nn(-c2ccc(C(=O)NCCOCCOCCNC(=O)c3ccnc(N4CCC5(CCCC(=O)NC5=O)C4)c3)cc2)cc1NC(=O)c1coc(-c2ccnc(NCC3CC3)c2)n1 (stereo not shown) [Example 142, N-[3-Carbamoyl-1-[4-[2-[2-[2-[[2-(6,8-dioxo-2,7-diazaspiro [4.6]undecan-2-yl)pyridine-4-carbonyl]amino]ethoxy]ethoxy]ethylcarbamoyl]phenyl]-pyrazol-4-yl]-2-[2-(cyclopropylmethylamino)-4-pyridyl]oxazole-4-carboxamide] | < 50 µM
NC(=O)c1nn(-c2ccc(C(=O)NCCOCCOCCNC(=O)c3ccc(N4CCC5(CCCC(=O)NC5=O)CC4=O)nc3)cc2)cc1NC(=O)c1coc(-c2ccnc(NCC3CC3)c2)n1 (stereo not shown) [Example 143, N-[3-Carbamoyl-1-[4-[2-[2-[2-[[6-(4,7,9-trioxo-3,8-diazaspiro [5.6]dodecan-3-yl)pyridine-3-carbonyl]amino]ethoxy]ethoxy]ethylcarbamoyl]phenyl]pyrazol-4-yl]-2-[2-(cyclopropylmethylamino)-4-pyridyl]oxazole-4-carboxamide] | < 50 µM
NC(=O)c1nn(-c2ccc(C(=O)NCCOCCOCCNC(=O)CN3CCC4(CCCC(=O)NC4=O)CC3=O)cc2)cc1NC(=O)c1coc(-c2ccnc(NCC3CC3)c2)n1 (stereo not shown) [Example 144, N-[3-Carbamoyl-1-[4-[2-[2-[2-[[2-(4,7,9-trioxo-3,8-diazaspiro [5.6]dodecan-3-yl)acetyl]amino]ethoxy]ethoxy]ethylcarbamoyl]phenyl]pyrazol-4-yl]-2-[2-(cyclopropylmethylamino)-4-pyridyl]oxazole-4-carboxamide] | < 50 µM
CC(C)(C)OC(=O)NCCCCCCCc1cn(C2CCCC(=O)NC2=O)nn1 (stereo not shown) [Example 147, tert-Butyl N-[7-[1-(2,7-dioxoazepan-3-yl)triazol-4-yl]heptyl]carbamate] | ≥ 100 µM
O=C1CCCC(n2cc(CCCCCCCC(=O)OCc3ccccc3)nn2)C(=O)N1 (stereo not shown) [Example 148, Benzyl 8-[1-(2,7-dioxoazepan-3-yl)triazol-4-yl]octanoate] | 50 to 100 µM
CC(C)(C)OC(=O)COc1ccccc1-c1cn(C2CCCC(=O)NC2=O)nn1 (stereo not shown) [Example 149, tert-Butyl 2-[2-[1-(2,7-dioxoazepan-3-yl)triazol-4-yl]phenoxy]acetate] | ≥ 100 µM
CC(C)(C)OC(=O)NCCCCCCc1ccc(-c2cn(C3CCCC(=O)NC3=O)nn2)cc1 (stereo not shown) [Example 150, tert-Butyl N-[6-[4-[1-(2,7-dioxoazepan-3-yl)triazol-4-yl]phenyl]hexyl]carbamate] | ≥ 100 µM
Cn1ccc2c(C(=O)N3CCC4(CCCC(=O)NC4=O)C3)cccc21 (stereo not shown) [Example 151, 2-(1-Methylindole-4-carbonyl)-2,7-diazaspiro [4.6]undecane-6,8-dione] | ≥ 100 µM
O=C1CCCC2(CCN(C(=O)c3ccc4scnc4c3)C2)C(=O)N1 (stereo not shown) [Example 152, 2-(1,3-Benzothiazole-5-carbonyl)-2,7-diazaspiro[4.6]undecane-6,8-dione] | ≥ 100 µM
O=C1CCCC2(CCN(C(=O)c3cnn4ccccc34)C2)C(=O)N1 (stereo not shown) [Example 153, 2-(Pyrazolo[1,5-a]pyridine-3-carbonyl)-2,7-diazaspiro[4.6]undecane-6,8-dione] | ≥ 100 µM

Structure (SMILES) | Kd
O=C1CCCC2(CCN(C(=O)c3nc4ccccc4o3)C2)C(=O)N1 (stereo not shown) [Example 154, 2-(1,3-Benzoxazole-2-carbonyl)-2,7-diazaspiro[4.6]undecane-6,8-dione] | ≥ 100 µM
Nc1ccc(C(=O)N2CCC3(CCCC(=O)NC3=O)C2)cc1 (stereo not shown) [Example 155, 2-(4-Aminobenzoyl)-2,7-diazaspiro[4.6]undecane-6,8-dione] | ≥ 100 µM
Cc1ccc(NC(=O)NCc2ccccc2C(=O)N2CCC3(CCCC(=O)NC3=O)C2)cc1Cl (stereo not shown) [Example 156, 1-(3-Chloro-4-methylphenyl)-3-[[2-(6,8-dioxo-2,7-diazaspiro[4.6]undecane-2-carbonyl)phenyl]methyl]urea] | ≥ 100 µM
Cc1ccc(NC(=O)NCc2ccc(C(=O)N3CCC4(CCCC(=O)NC4=O)C3)cc2)cc1Cl (stereo not shown) [Example 157, 1-(3-Chloro-4-methylphenyl)-3-[[4-(6,8-dioxo-2,7-diazaspiro[4.6]undecane-2-carbonyl)phenyl]methyl]urea] | < 50 µM
CC(C)(C)OC(=O)NCCCCCCc1cccc(C(=O)N2CCC3(CCCC(=O)NC3=O)C2)c1 (stereo not shown) [Example 158, tert-Butyl N-[6-[3-(6,8-dioxo-2,7-diazaspiro[4.6]undecane-2-carbonyl)phenyl]hexyl]carbamate] | 50 to 100 µM
CC(C)(C)OC(=O)NCCCCCCc1ccccc1C(=O)N1CCC2(CCCC(=O)NC2=O)C1 (stereo not shown) [Example 159, tert-ButylN-[6-[2-(6,8-dioxo-2,7-diazaspiro[4.6]undecane-2-carbonyl)phenyl]hexyl]carbamate] | ≥ 100 µM
CC(C)(C)OC(=O)NCCCCCCc1ccc(C(=O)N2CCC3(CCCC(=O)NC3=O)C2)cc1Cl (stereo not shown) [Example 160, tert-Butyl N-[6-[2-chloro-4-(6,8-dioxo-2,7-diazaspiro[4.6]undecane-2-carbonyl)phenyl]hexyl]carbamate] | 50 to 100 µM
CC(C)(C)OC(=O)NCCCCCCc1cccc2c(C(=O)N3CCC4(CCCC(=O)NC4=O)C3)cccc12 (stereo not shown) [Example 161, tert-Butyl N-[6-[5-(6,8-dioxo-2,7-diazaspiro[4.6]undecane-2-carbonyl)naphthalen-1-yl]hexyl]carbamate] | 50 to 100 µM
CC(C)(C)OC(=O)NCCCCCCn1ccc2c(C(=O)N3CCC4(CCCC(=O)NC4=O)C3)cccc21 (stereo not shown) [Example 162, tert-Butyl N-[6-[4-(6,8-dioxo-2,7-diazaspiro [4.6]undecane-2-carbonyl)indol-1-yl]hexyl]carbamate] | 50 to 100 µM
O=C1NC(=O)C2(Nc3cccc(Br)c3)CCC1CC2 [Example 165, 1-(3-Bromoanilino)-3-azabicyclo [3.2.2]nonane-2,4-dione] | ≥ 100 µM
O=C1NC(=O)C2(c3ccc(Br)cc3)CCC1CC2 [Example 167, 1-(4-Bromophenyl)-3-azabicyclo [3.2.2]nonane-2,4-dione] | ≥ 100 µM
CC(C)(C)OC(=O)N1CCC(c2cnc(N3CCC4(CCCC(=O)NC4=O)C3)nc2)CC1 (stereo not shown) [Example 168-2, tert-Butyl 4-[2-(6,8-dioxo-2,7-diazaspiro [4.6]undecan-2-yl)pyrimidin-5-yl]piperidine-1-carboxylate] | < 50 µM
COC(=O)c1cc2c(N3CCC4(CCCC(=O)NC4=O)C3)ncnc2s1 (stereo not shown) [Example 176, Methyl 4-(6,8-dioxo-2,7-diazaspiro[4.6]undecan-2-yl)thieno[2,3-d]pyrimidine-6-carboxylate] | < 50 µM
N#Cc1cc([N+](=O)[O-])ccc1N1CCC2(CCCC(=O)NC2=O)C1 (stereo not shown) [Example 177, 2-(6,8-dioxo-2,7-diazaspiro[4.6]undecan-2-yl)-5-nitrobenzonitrile] | 50 to 100 µM
CC(=O)N1CCc2nc(N3CCC4(CCCC(=O)NC4=O)C3)ncc2C1 (stereo not shown) [Example 178, 2-(6-Acetyl-7,8-dihydro-5H-pyrido[4,3-d]pyrimidin-2-yl)-2,7-diazaspiro[4.6]undecane-6,8-dione] | < 50 µM
N#Cc1ccc(N2CCC3(CCCC(=O)NC3=O)C2)cc1 (stereo not shown) [Example 179, 4-(6,8-Dioxo-2,7-diazaspiro[4.6]undecan-2-yl)benzonitrile] | < 50 µM
Cn1c(C(=O)OC(C)(C)C)cc2c(N3CCC4(CCCC(=O)NC4=O)C3)ncnc21 (stereo not shown) [Example 180, tert-Butyl 4-(6,8-dioxo-2,7-diazaspiro[4.6]undecan-2-yl)-7-methylpyrrolo[2,3-d]pyrimidine-6-carboxylate] | 50 to 100 µM
Nc1nccc(N2CCC3(CCCC(=O)NC3=O)C2)n1 (stereo not shown) [Example 182, 2-(2-Aminopyrimidin-4-yl)-2,7-diazaspiro[4.6]undecane-6,8-dione] | ≥ 100 µM
CC(C)(C)OC(=O)c1ccc(N2CCC3(CCCC(=O)NC3=O)C2)nn1 (stereo not shown) [Example 184, tert-Butyl 6-(6,8-dioxo-2,7-diazaspiro[4.6]undecan-2-yl)pyridazine-3-carboxylate] | ≥ 100 µM
CC(C)(C)OC(=O)NCCCNc1nccc(N2CCC3(CCCC(=O)NC3=O)C2)n1 (stereo not shown) [Example 185] | ≥ 100 µM
